Experimental data: patent EP0171441A1, “Prostaglandin analogues, processes for their preparation and compositions containing them” (ONO PHARMACEUTICAL CO., LTD., priority 1984, dated 1986)
Values after ≈ are worked out from the molar mass of the structure shown.

System: cells originated from human mouth tumor (KB-cells)
Assay: Test on inhibition of proliferation using cells originated from human mouth tumor (KB-cells)
Type: cell-based
Conditions: 96 h, stationary culture at 37°C for 4 days, Trypan Blue staining, surviving cell number relative to control
Method: The cells originated from human mouth tumor (KB-cells) were added to Eagle's MEM culture solution containing 10% bovine fetal serum, the number of cells in the culture solution was adjusted to […] cells/ml, a solution in ethanol of the compound of the present invention was added to give a concentration of 5µg/ml or less (3 compounds) and the mixture subjected to stationary culture at 37°C for 4 days. As a control, a culture solution containing 0.1% of ethanol was similarly cultured. After the culture, the cells were
stained by the Trypan Blue staining method, and the surviving cell number was measured to determine the IC50 value from the degree of inhibition relative to the control. Compounds are identified by the Example (described hereinafter) in which they are prepared.

| Structure (SMILES) | IC50 [µg/mL] |
| --- | --- |
| CCCCCC=CC=C1C(=O)C=C[C@@H]1C/C=C\CCCCO [Compound 2, (5Z,14EZ)-11-oxoprosta-5,9,12,14-tetraen-1-ol] | < 1 |
| CCCCCC=CC=C1C(=O)C=CC1CC=CCCCCOC(C)=O (stereo not drawn) [Compound 3, (5Z,14EZ)-1-0-acetyl-11-oxoprosta-5,9,12,14-tetraen-l-ol] | 1.6 (≈ 4.64 µM) |
| CCCCC[C@H](O)/C=C/[C@H]1C(=O)C=C[C@@H]1C/C=C\CCCCOC(N)=O [Compound 1(c)] | 1.1 (≈ 3.03 µM) |
| CCCCC[C@H](O)/C=C/[C@H]1C(=O)C[C@H](O)[C@@H]1C/C=C\CCCCOC(=O)C=C(C)C [Compound 1, 1-O-(3,3-dimethylacryloyl)-PGD2 alcohol] | 2.1 (≈ 4.99 µM) |
